Assay results reported in patent US20230212170A1, “INHIBITORS OF KRAS G12C PROTEIN AND USES THEREOF” (SHANGHAI ANTENGENE CORPORATION LIMITED, priority 2020, published 2023).
pIC50: −log10 of the molar value. Where two headings read alike, the source gives them in different places.

Columns and labels:
[1] = system: A549; experiment: Tumor cell anti-proliferation assay (CTG assay), A549; assay type: cell-based; details: A549, 3-days incubation
Protocol: (§1) Assay 3: Tumor Cell Anti-Proliferation Assay (CTG Assay)
(§2) Tested tumor cell lines (MIA PaCa-2, NCI-H358, and A549) were seeded to the 96-well plate for overnight, then cells were treated with the test compound at 9 serially diluted concentrations in triplicate. After 3-days incubation with the test compound, the CTG assay was performed to evaluate the IC50. The 3 cell lines were tested in the same manner. Cisplatin were used as the positive control.
(§3) Day −1: Cell Plating for Cell Lines
(§4) 1. Adjust the cell concentration to the appropriated number with the medium, and for each well of a 96-well plate, add 90 μl cell suspensions (Cell concentration will be adjusted according to the data base or density optimization assay). 2. Incubate the plates for overnight in humidified incubator at […] with 5% CO2.
(§5) Day 0: T0 Plate Reading and Compound Treatment
(§6) 3. Add 10 μL culture medium to each well of plate A for T0 reading.
(§7) 4. Equilibrate the plate and its content at RT for approximately 30 min.
(§8) 5. Add 50 μL CellTiter-Glo® Reagent to each well for T0 reading.
(§9) 6. Mix contents for 2 minutes on an orbital shaker to facilitate cell lysis.
(§10) 7. Allow the plate to incubate at room temperature for 10 minutes to stabilize the luminescent signal. Note: Uneven luminescent signal within standard plates can be caused by temperature gradients, uneven seeding of cells or edge effects in multiwall plates.
(§11) 8. Place a black BackSeal sticker to the bottom of each plate.
(§12) 9. Record luminescence using an Envision Multi Label Reader.
(§13) 10. Dilute the test compound and the positive control (Cisplatin). Add 10 μL of 10× test compound working solutions into the corresponding wells. Incubate the test plates in the humidified incubator at 37° C. with 5% Co2.
(§14) Day 3: Plate Reading for 3-Day Assay
(§15) 11. Monitor under the microscope to make sure that the cells in control wells are healthy.
(§16) 12. After three days incubation, add 50 μL CellTiter-Glo® Reagent to each well.
(§17) 13. Mix contents for 2 minutes on an orbital shaker to facilitate cell lysis.
(§18) 14. Allow the plate to incubate at room temperature for 10 minutes to stabilize the luminescent signal.
(§19) 15. Note: Uneven luminescent signal within standard plates can be caused by temperature gradients, uneven seeding of cells or edge effects in multiwall plates.
(§20) 16. Place a black BackSeal sticker to the bottom of each plate.
(§21) 17. Record luminescence using an Envision Multi Label Reader.
(§22) In order to calculate IC50, a dose-response curve was fitted using nonlinear regression model with a sigmoidal dose response. The formula of the surviving rate is shown below, and the IC50 was automatically produced by GraphPad Prism 5.0.
(§23) The surviving rate […]=(LumTest compound−LumMedium control)/(LumNone treated-LumMedium control)×100%.
(§24) LumNone treated-LumMedium control is set as 100% o and LumMedium control is set as […]. T0 value will be presented as percentage of LumNone treated.

[2] = system: MIA PaCa-2; experiment: Tumor cell anti-proliferation assay (CTG assay), MIA PaCa-2; assay type: cell-based; details: MIA PaCa-2, 3-days incubation, CTG, read-out: IC50 MIA PaCa-2
Protocol: as §1, §2, §3, §4, §5, §6, §7, §8, §9, §10, §11, §12, §13, §14, §15, §16, §17, §18, §19, §20, §21, §22, §23, §24

[3] = system: NCI-H358; experiment: Tumor cell anti-proliferation assay (CTG assay), NCI-H358; assay type: cell-based; details: NCI-H358, 3-days incubation, CTG, read-out: IC50 NCI-H358
Protocol: as §1, §2, §3, §4, §5, §6, §7, §8, §9, §10, §11, §12, §13, §14, §15, §16, §17, §18, §19, §20, §21, §22, §23, §24

[4] = molecular target: T1, KRAS G12C (Homo sapiens, UniProt P01116, G12C); experiment: KRAS GDP FI assay; assay type: biochemical; details: kinetic reading Ex580/Em620 for 120 min
From the text: Assay 2: KRAS GDP FI Assay
1. Prepare compound dilution plate.
2. Transfer Inhibitor/DMSO to assay plate by Echo.
3. Prepare 1× assay buffer.
4. Prepare KRAS G12C mix & SOS1 mix & GTP mix & detection reagent mix.
5. Add KRAS G12C mix, SOS1 mix, GTP mix.
6. Add detection reagent mix to assay plate.
Target sequence in this assay (P01116 1-188 isoform P01116-2 G12C): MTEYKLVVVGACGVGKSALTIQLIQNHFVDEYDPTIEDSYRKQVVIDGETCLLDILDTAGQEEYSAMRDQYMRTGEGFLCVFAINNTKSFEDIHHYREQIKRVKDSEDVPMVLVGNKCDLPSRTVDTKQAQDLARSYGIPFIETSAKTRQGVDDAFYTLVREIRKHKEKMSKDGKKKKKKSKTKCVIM

[5] = Pharmacokinetics study in plasma of ICR mice, intravenous or oral administration; assay type: in vivo; details: male ICR mice
Protocol: The purpose of this study is to determine the pharmacokinetics parameters in plasma of compounds in ICR mice following intravenous or oral administration.
The formulations were based on sponsor's recommendation and will be prepared by the Testing Facility.
Species and Strain: ICR Mice (Male)
Source: Sino-British SIPPR Lab Animal Ltd, Shanghai
Number of Animals: Ordered: 8; Needed: 6
The test article was be administered via a single IV or PO dosing.
IV group: Post-dose at 5 min, 15 min, 30 min, 1 h, 2 h, 4 h, 8 h and 24 h.
PO group: Post-dose at 15 min, 30 min, 1 h, 2 h, 4 h, 6 h, 8 h and 24 h.
30˜40 μL/sample. Samples were be placed in tubes containing heparin sodium and stored on ice until centrifuged.
The PK blood samples were centrifuged at approximately 6800G for 6 minutes at 2-8° C. and the resulting plasma was transferred to appropriately labeled tubes within 2 hour of blood collection/centrifugation and stored frozen at approximately −70° C.
Method development and biological samples analysis for the test articles (Sodium heparin anticoagulant) were be performed by Testing Facility by means of LC-MS/MS. The analytical results were be confirmed using quality control samples for intra-assay variation. The accuracy of >66.7% of the quality control samples were be between 80-120% of the known value(s).
Pharmacokinetics Analysis
Standard set of parameters including Area Under the Curve (AUC(0-t) and AUC(0-∞)), elimination half-live (T1/2), maximum plasma concentration (Cmax) and time to reach maximum plasma concentration (Tmax) and other parameters were be calculated using Phoenix WinNonlin 7.0 (Pharsight, USA) by the Study Director.

[6] = molecular target: T1, KRAS G12C; experiment: KRAS G12C nucleotide exchange assay (SOS1-mediated, mant-GDP fluorescence); assay type: biochemical; set-up: KRas(1-169) G12C protein; details: 15 min pre-incubation
Protocol: Assay 1: KRAS G12C Nucleotide Exchange Assay
1×Loading buffer: 20 mM HEPES, pH 7.5, 50 mM NaCl, 0.5 mM MgCl2, 1 mM DTT, 5 mM EDTA
1×Equilibration buffer: 20 mM HEPES, pH 7.5, 150 mM NaCl, 1 mM MgCl2, 1 mM DTT
1×Assay buffer: 20 mM HEPES, pH 7.5, 150 mM NaCl, 1 mM MgCl2, 0.01% Tween-20, 1 mM DTT
2. Load Mant GDP to KRAS G12C:
a. A mixed solution of 100 µL mant GDP and KRAS G12C was prepared with 1×loading buffer: 60 um KRAS G12C, 600 um […], incubated at room temperature for 60 minutes, and the reaction was carried out in dark conditions.
b. Add 1 uL 1 m MgCl2 (final concentration 10 mm) to stop the reaction, mix the solution upside down in the centrifuge tube, centrifugate for 3-5 seconds, and incubate at room temperature for 30 minutes.
c. At the same time of incubation for 30 minutes, balance nap-5 column with 10 ml ix equipment buffer until no liquid drops.
d. Drop the mixed solution of 100 uL mant GDP and KRAS G12C into the center of nap-5 column. After the sample completely enters nap-5 column, add 400 µL 1× equipment buffer until no liquid drops.
e. Add 500 ul 1× equipment buffer for elution and collect eluant.
f. Determination of KRAS G12C mant GDP with Bradford protein quantitative Kit.
3. Nucleotide Exchange Experiment:
a. Transfer 50 NL DMSO/compound to 384 well plate with echo550.
b. 10 uL enzyme mix was added into 384 pore plate and incubated with DMSO/compound for 15 min.
c. Initial reaction with 10 µL Sos1/GTP mix.
d. Immediately after reaction, read ex360/em440 fluorescence value in kinetic mode with Nivo.
a. Use Graphpad software to process data and draw pictures.
b. K value is obtained in Graphpad software by fitting One phase experimental deck model.
c. Z′=1-3*(SdKmax+SdKmin)/(AveKmax−AveKmin)
d. In % is calculated by the following formula:
Inh%=(Kmax−Ksample)/(Kmax−Kmin)*100
Target sequence in this assay (P01116 1-169 isoform P01116-2 G12C): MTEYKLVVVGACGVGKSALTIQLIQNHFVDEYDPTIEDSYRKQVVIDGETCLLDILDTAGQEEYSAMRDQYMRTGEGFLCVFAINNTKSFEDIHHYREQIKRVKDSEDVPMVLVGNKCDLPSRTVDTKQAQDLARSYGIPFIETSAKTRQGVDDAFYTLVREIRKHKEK

[7] = mouse, 1 mg/kg, IV, 1 mpk, plasma
[8] = mouse, 10 mg/kg, PO, 10 mpk, fasted, plasma

pIC50 ([1]; Homo sapiens, 72 h)	pIC50 ([2]; Homo sapiens, MIA PaCa-2, 72 h)	pIC50 [3]	pIC50 [1]	pIC50 [2]	pIC50 ([3]; Homo sapiens, NCI-H358, 72 h)	pIC50 [6]	SMILES	further results
< 5.00	6.04	7.54					C=CC(=O)N1C[C@H](C)N(c2nc(OC[C@@H]3CCCN3C)nc3c(=O)n(-c4cccc5cccc(Cl)c45)c(C(F)(F)F)nc23)[C@@H](C)C1 (single isomer, unassigned) [Example 29-b]	pIC50 [4]: 6.90; F ([5]; PO 10 mpk vs IV 1 mpk): 26.74%; AUC [5, 7]: 0.993 µM·h; C0 [5, 7]: 659 nM; Vd [5, 7]: 2.97 L/kg; clearance [5, 7]: 25.7 mL/min/kg; half-life [5, 7]: 1.59 h; AUC [5, 8]: 2.58 µM·h; Cmax [5, 8]: 729 nM; Tmax [5, 8]: 0.42 h; half-life [5, 8]: 2.39 h
< 5.30	< 5.30				< 5.30	6.43	C=CC(=O)N1CCN(c2nc(OC[C@@H]3CCCN3C)nc3c(=O)n(-c4cccc5cccc(Cl)c45)c(=O)[nH]c23)C[C@@H]1CC#N [Compound 19, 2-((S)-1-acryloyl-4-(7-(8-chloronaphthalen-1-yl)-2-(((S)-1-methylpyrrolidin-2-yl)methoxy)-6,8-dioxo-5,6,7,8-tetrahydropyrimido[5,4-d]pyrimidin-4-yl)piperazin-2-yl)acetonitrile]	
< 5.00		5.93		5.58			C=CC(=O)N1C[C@H](C)N(c2nc(OC[C@@H]3CCCN3C)nc3c(=O)n(-c4cc(OC)cc5ccccc45)c(C(F)(F)F)nc23)[C@@H](C)C1 (single isomer, unassigned) [Example 35-a]	
		7.09	< 5.00	6.17			C=CC(=O)N1C[C@H](C)N(c2nc(OC[C@@H]3CCCN3C)nc3c(=O)n(-c4cccc5cccc(F)c45)c(C(F)(F)F)nc23)[C@@H](C)C1 (single isomer, unassigned) [Example 34-b]	
< 5.30	6.19				5.87	6.16	Cc1nc2c(N3CCN[C@@H](CC#N)C3)nc(OC[C@@H]3CCCN3C)nc2c(=O)n1-c1cccc2ccccc12 [Compound 2, 2-((S)-4-(6-methyl-2-(((S)-1-methylpyrrolidin-2-yl)methoxy)-7-(naphthalen-1-yl)-8-oxo-7,8-dihydropyrimido[5,4-d]pyrimidin-4-yl)piperazin-2-yl)acetonitrile]	
< 5.30	6.30				6.32	6.25	C=CC(=O)N1CCN(c2nc(OC[C@@H]3CCCN3C)nc3c(=O)n(-c4cccc5cccc(Cl)c45)c(C)nc23)C[C@@H]1CC#N [Compound 4, 2-((S)-1-acryloyl-4-(7-(8-chloronaphthalen-1-yl)-6-methyl-2-(((S)-1-methylpyrrolidin-2-yl)methoxy)-8-oxo-7,8-dihydropyrimido[5,4-d]pyrimidin-4-yl)piperazin-2-yl)acetonitrile]	
		6.69	< 5.00	6.04			C=CC(=O)N1C[C@H](C)N(c2nc(OC[C@@H]3CCCN3C)nc3c(=O)n(-c4cc(OC)cc5ccccc45)c(C(F)(F)F)nc23)[C@@H](C)C1 (single isomer, unassigned) [Example 35-b]	
< 5.00	6.91					6.35	C=CC(=O)N1CCN(c2nc(OC[C@@H]3CCCN3C)nc3c(=O)n(-c4cccc5cccc(Cl)c45)c(C(F)(F)F)nc23)C[C@@H]1CC#N [Example 31, 2-((S)-1-acryloyl-4-(7-(8-chloronaphthalen-1-yl)-2-(((S)-1-methylpyrrolidin-2-yl)methoxy)-8-oxo-6-(trifluoromethyl)-7,8-dihydropyrimido[5,4-d]pyrimidin-4-yl)piperazin-2-yl)acetonitrile]	pIC50 [4]: 6.94
< 5.00	5.91	6.69					C=CC(=O)N1C[C@H](C)N(c2nc(OC[C@@H]3CCCN3C)nc3c(=O)n(-c4cccc5cccc(F)c45)c(C(F)(F)F)nc23)[C@@H](C)C1 (single isomer, unassigned) [Example 34-a]	

SMILES	pIC50 ([1]; Homo sapiens, 72 h)	pIC50 ([2]; Homo sapiens, MIA PaCa-2, 72 h)	pIC50 [3]	pIC50 [1]	pIC50 [2]	pIC50 ([3]; Homo sapiens, NCI-H358, 72 h)	pIC50 [6]	further results
N.N.[Cl][Pt][Cl] [Cisplatin, reference compound]			4.60	4.51	4.84			
